Data taken from patent publication US10988478B1, “Pyrazolo[1,5a]pyrimidine derivatives as IRAK4 modulators” (Genentech, Inc., priority 2015, dated 2021).

What follows are compounds tested against human IRAK4 (Homo sapiens (Human), UniProt Q9NWZ3) (assay: IRAK4 kinase inhibition, Transcreener fluorescence polarization ADP assay). Settings: recombinant full-length His6-IRAK4; 125 uM ATP; 90 min; Ki computed using ATP Km 642 uM.
Format: biochemical
Description: Compounds were assayed for inhibition of human IRAK4 and IRAK1 catalytic activity using recombinant enzyme produced from insect cells. Full-length IRAK4 protein, carrying an N-terminal His6-Tag, was obtained from Life Technologies (Carlsbad, Calif., USA). The IRAK1 construct was produced internally and was comprised of IRAK1 residues Arg194 to Ser712, preceded by an NH2-terminal His6 tag and the coding sequence for glutathione-S-transferase.

Sequence of human IRAK4 (Q9NWZ3 whole entry): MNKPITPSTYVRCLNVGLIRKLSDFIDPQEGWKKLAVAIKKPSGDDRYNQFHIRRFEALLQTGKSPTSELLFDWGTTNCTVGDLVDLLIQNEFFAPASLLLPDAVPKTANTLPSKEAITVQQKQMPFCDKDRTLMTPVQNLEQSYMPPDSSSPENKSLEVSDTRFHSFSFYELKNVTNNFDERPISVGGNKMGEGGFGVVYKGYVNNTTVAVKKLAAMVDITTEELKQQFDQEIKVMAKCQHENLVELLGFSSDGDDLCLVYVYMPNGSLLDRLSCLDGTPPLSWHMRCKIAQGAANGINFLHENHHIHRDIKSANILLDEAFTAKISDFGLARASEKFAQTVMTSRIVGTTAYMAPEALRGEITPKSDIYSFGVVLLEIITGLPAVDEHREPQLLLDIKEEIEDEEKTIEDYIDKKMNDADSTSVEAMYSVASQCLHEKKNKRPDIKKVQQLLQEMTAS

SMILES	Ki [nM]
CC(C)(O)[C@@]1(C)Cc2cc(NC(=O)c3cnn4cccnc34)c(N3CCN(CC(N)=O)CC3)cc2O1 [Example 525, N-[(2R)-6-[4-(2-amino-2-oxo-ethyl)piperazin-1-yl]-2-(1-hydroxy-1-methyl-ethyl)-2-methyl-3H-benzofuran-5-yl]pyrazolo[1,5-a]pyrimidine-3-carboxamide]	4.2
CC1(C)Cc2cc(NC(=O)c3cnn4cccnc34)c(N3CCC(C(N)=O)CC3)cc2O1 [Example 531, N-[6-(4-carbamoyl-1-piperidyl)-2,2-dimethyl-3H-benzofuran-5-yl]pyrazolo[1,5-a]pyrimidine-3-carboxamide]	3.2
CN(C)C1CCN(c2cc3c(cc2NC(=O)c2cnn4cccnc24)CC(C)(C)O3)CC1 [Example 532, N-[6-[4-(dimethylamino)-1-piperidyl]-2,2-dimethyl-3H-benzofuran-5-yl]pyrazolo[1,5-a]pyrimidine-3-carboxamide]	7.2
CC1(C)Cc2cc(NC(=O)c3cnn4cccnc34)c(N3CCNCC3)cc2O1 [Example 533, N-(2,2-dimethyl-6-piperazin-1-yl-3H-benzofuran-5-yl)pyrazolo[1,5-a]pyrimidine-3-carboxamide]	13
CC1(C)Cc2cc(NC(=O)c3cnn4cccnc34)c(N3CCC(F)(C(N)=O)CC3)cc2O1 [Example 534, N-[6-(4-carbamoyl-4-fluoro-1-piperidyl)-2,2-dimethyl-3H-benzofuran-5-yl]pyrazolo[1,5-a]pyrimidine-3-carboxamide]	2
CC1(CC(N)=O)CCN(c2cc3c(cc2NC(=O)c2cnn4cccnc24)CC(C)(C)O3)CC1 [Example 535, N-[6-[4-(2-Amino-2-oxo-ethyl)-4-methyl-1-piperidyl]-2,2-dimethyl-3H-benzofuran-5-yl]pyrazolo[1,5-a]pyrimidine-3-carboxamide]	3.1
CC1(C)Cc2cc(NC(=O)c3cnn4cccnc34)c(N3CCC(O)(CC(N)=O)CC3)cc2O1 [Example 536, N-[6-[4-(2-amino-2-oxo-ethyl)-4-hydroxy-1-piperidyl]-2,2-dimethyl-3H-benzofuran-5-yl]pyrazolo[1,5-a]pyrimidine-3-carboxamide]	3.1
CN(C)c1cc2c(cc1NC(=O)c1cnn3cccnc13)CC(C)(C)O2 [Example 537, N-(6-(dimethylamino)-2,2-dimethyl-2,3-dihydrobenzofuran-5-yl)pyrazolo[1,5-a]pyrimidine-3-carboxamide]	12
Cn1cnc(COc2cc3c(cc2NC(=O)c2cnn4cccnc24)CC(C)(C)O3)c1 [Example 538, N-(2,2-dimethyl-6-((1-methyl-1H-imidazol-4-yl)methoxy)-2,3-dihydrobenzofuran-5-yl)pyrazolo[1,5-a]pyrimidine-3-carboxamide]	220
CC1(C)Cc2cc(NC(=O)c3cnn4cccnc34)c(OCc3c[nH]cn3)cc2O1 [Example 539, N-[6-(1H-Imidazol-4-ylmethoxy)-2,2-dimethyl-3H-benzofuran-5-yl]pyrazolo[1,5-a]pyrimidine-3-carboxamide]	33
CC1(C)Cc2cc(NC(=O)c3cnn4cccnc34)c(OC[C@H]3CCC(=O)N3)cc2O1 [Example 540, N-[2,2-dimethyl-6-[[(2R)-5-oxopyrrolidin-2-yl]methoxy]-3H-benzofuran-5-yl]pyrazolo[1,5-a]pyrimidine-3-carboxamide]	74
CC1(C)Cc2cc(NC(=O)c3cnn4cccnc34)c(OC[C@@H]3CCC(=O)N3)cc2O1 [Example 541, N-[2,2-dimethyl-6-[[(2S)-5-oxopyrrolidin-2-yl]methoxy]-3H-benzofuran-5-yl]pyrazolo[1,5-a]pyrimidine-3-carboxamide]	190
Cc1cc(COc2cc3c(cc2NC(=O)c2cnn4cccnc24)CC(C)(C)O3)n[nH]1 [Example 542, N-[2,2-Dimethyl-6-[(5-methyl-1H-pyrazol-3-yl)methoxy]-3H-benzofuran-5-yl]pyrazolo[1,5-a]pyrimidine-3-carboxamide]	59

More lines, now with the values ahead:

Ki [nM]	SMILES
38	CC(C)(O)[C@H]1CC[C@@H](N2Cc3cc(NC(=O)c4cnn5cccnc45)c(N4CCOCC4)cc3C2=O)CC1 [Example 547, Cis-N-[2-[4-(1-Hydroxy-1-methyl-ethyl)cyclohexyl]-6-morpholino-1-oxo-isoindolin-5-yl]pyrazolo[1,5-a]pyrimidine-3-carboxamide]
2.9	CC(C)(O)[C@H]1CC[C@H](N2Cc3cc(NC(=O)c4cnn5cccnc45)c(N4CCOCC4)cc3C2=O)CC1 [Example 548, trans-N-[2-[4-(1-Hydroxy-1-methyl-ethyl)cyclohexyl]-6-morpholino-1-oxo-isoindolin-5-yl]pyrazolo[1,5-a]pyrimidine-3-carboxamide]
2.9	C[C@@H](CN1Cc2cc(NC(=O)c3cnn4cccnc34)c(N3CCOCC3)cc2C1=O)N1CCOCC1 [Example 551, N-[6-morpholino-2-[(2S)-2-morpholinopropyl]-1-oxo-isoindolin-5-yl]pyrazolo[1,5-a]pyrimidine-3-carboxamide]
12	C[C@H](CN1Cc2cc(NC(=O)c3cnn4cccnc34)c(N3CCOCC3)cc2C1=O)N1CCOCC1 [Example 552, N-[6-morpholino-2-[(2R)-2-morpholinopropyl]-1-oxo-isoindolin-5-yl]pyrazolo[1,5-a]pyrimidine-3-carboxamide]
58	CN1CC[C@@H](N2Cc3cc(NC(=O)c4cnn5cccnc45)c(N4CCOCC4)cc3C2=O)C1=O [Example 553, N-[2-[(3R)-1-methyl-2-oxo-pyrrolidin-3-yl]-6-morpholino-1-oxo-isoindolin-5-yl]pyrazolo[1,5-a]pyrimidine-3-carboxamide]
14	CN1CC[C@H](N2Cc3cc(NC(=O)c4cnn5cccnc45)c(N4CCOCC4)cc3C2=O)C1=O [Example 554, N-[2-[(3S)-1-methyl-2-oxo-pyrrolidin-3-yl]-6-morpholino-1-oxo-isoindolin-5-yl]pyrazolo[1,5-a]pyrimidine-3-carboxamide]
4.5	O=C(Nc1cc2c(cc1N1CCOCC1)C(=O)N(C[C@H]1CCOC1)C2)c1cnn2cccnc12 [Example 556, N-[6-morpholino-1-oxo-2-[[(3R)-tetrahydrofuran-3-yl]methyl]isoindolin-5-yl]pyrazolo[1,5-a]pyrimidine-3-carboxamide]
7.3	C[C@H](O)[C@H](F)CN1Cc2cc(NC(=O)c3cnn4cccnc34)c(N3CCOCC3)cc2C1=O [Example 557, N-[2-[(2R,2S)-2-fluoro-3-hydroxy-butyl]-6-morpholino-1-oxo-isoindolin-5-yl]pyrazolo[1,5-a]pyrimidine-3-carboxamide]
8.4	C[C@@H](O)[C@@H](F)CN1Cc2cc(NC(=O)c3cnn4cccnc34)c(N3CCOCC3)cc2C1=O [Example 558, N-[2-[(2S,3R)-2-fluoro-3-hydroxy-butyl]-6-morpholino-1-oxo-isoindolin-5-yl]pyrazolo[1,5-a]pyrimidine-3-carboxamide]
2.2	O=C(Nc1cc2c(cc1N1CCOCC1)C(=O)N(C[C@@H]1CCC[C@@H]1O)C2)c1cnn2cccnc12 [Example 559, N-[2-[[(1S,2S)-2-hydroxycyclopentyl]methyl]-6-morpholino-1-oxo-isoindolin-5-yl]pyrazolo[1,5-a]pyrimidine-3-carboxamide]
1.6	O=C(Nc1cc2c(cc1N1CCOCC1)C(=O)N(C[C@H]1CCC[C@H]1O)C2)c1cnn2cccnc12 [Example 560, N-[2-[[(1R,2R)-2-hydroxycyclopentyl]methyl]-6-morpholino-1-oxo-isoindolin-5-yl]pyrazolo[1,5-a]pyrimidine-3-carboxamide]
11	C[C@H](O)[C@@H](F)CN1Cc2cc(NC(=O)c3cnn4cccnc34)c(N3CCOCC3)cc2C1=O [Example 561, N-(2-((2S,3S)-2-fluoro-3-hydroxybutyl)-6-morpholino-1-oxoisoindolin-5-yl)pyrazolo[1,5-a]pyrimidine-3-carboxamide]
1.9	C[C@@H](O)[C@H](F)CN1Cc2cc(NC(=O)c3cnn4cccnc34)c(N3CCOCC3)cc2C1=O [Example 562, N-(2-((2R,3R)-2-fluoro-3-hydroxybutyl)-6-morpholino-1-oxoisoindolin-5-yl)pyrazolo[1,5-a]pyrimidine-3-carboxamide]
33	CC(C)(O)[C@H](F)CN1Cc2cc(NC(=O)c3cnn4cccnc34)c(N3CCC3)cc2C1=O [Example 563, N-[6-(azetidin-1-yl)-2-[(2R)-2-fluoro-3-hydroxy-3-methyl-butyl]-1-oxo-isoindolin-5-yl]pyrazolo[1,5-a]pyrimidine-3-carboxamide]
28	O=C(Nc1cc2c(cc1N1CCOCC1)C(=O)N([C@H]1CCC[C@H]1CO)C2)c1cnn2cccnc12 [Example 564, N-(2-((1S,2R)-2-(hydroxymethyl)cyclopentyl)-6-morpholino-1-oxoisoindolin-5-yl)pyrazolo[1,5-a]pyrimidine-3-carboxamide]
94	O=C(Nc1cc2c(cc1N1CCOCC1)C(=O)N([C@@H]1CCC[C@@H]1CO)C2)c1cnn2cccnc12 [Example 565, N-(2-((1R,2S)-2-(hydroxymethyl)cyclopentyl)-6-morpholino-1-oxoisoindolin-5-yl)pyrazolo[1,5-a]pyrimidine-3-carboxamide]
8	O=C(Nc1cc2c(cc1N1CCOCC1)C(=O)N([C@H]1CCC[C@@H]1CO)C2)c1cnn2cccnc12 [Example 566, N-(2-((1S,2S)-2-(hydroxymethyl)cyclopentyl)-6-morpholino-1-oxoisoindolin-5-yl)pyrazolo[1,5-a]pyrimidine-3-carboxamide]
5.9	O=C(Nc1cc2c(cc1N1CCOCC1)C(=O)N([C@@H]1CCC[C@H]1CO)C2)c1cnn2cccnc12 [Example 567, N-(2-((1R,2R)-2-(hydroxymethyl)cyclopentyl)-6-morpholino-1-oxoisoindolin-5-yl)pyrazolo[1,5-a]pyrimidine-3-carboxamide]
